1 substance from patent publication US12194021B2, “Modified herbal compositions for neuromodulation” (University of Southern California, priority 2021, dated 2025) can be followed below.

What all share (format): in vivo
Experiment [1] has as its system TG-mice. Nature of the experiment: Novel Object Recognition (NOR). As to conditions: 1 mg/kg oral in 2% sucrose, 3 months, untreated TG 51.2±3.6%, wt 68.9±6.8%. Here is the method: 4) Memory Test Protocol. Novel Object Recognition (NOR): Day 1-3: Habituation (once/day). Top open containers (open field) were used with video camera to record animal behavior. An animal was put into a container with no objects for 5 min. Context remained the same for each animal.
Day 4, Familiarization: Two identical objects (toys-FO: familiar object) were put into the container at specific positions. Then animals were put into the container to explore the objects for 5 min. Retention Trial 1.5 h: Each animal was placed in its home cage for 1.5 h after the familiarization. One of the toys was replaced with a new toy (NO, novel object and very different from FO). […]
Day 5, Retention Trial 24 h: We placed another new toy (NO) along with an original object (FO) in the container. […] We scored the animal behavior offline according to how long the animal spent exploring each object. The Object Recognition Index (ORI) was calculated, such that ORI=(tn−tf)/(tn+tf), where tf and tn represent times of exploring the familiar and novel objects, respectively.
Mice were divided into four groups: (1) C57BL/6 wt male mice were treated with oral administration of 2% sucrose; (2) C57B1/6 wt male mice with oral administration of 1 mg/kg D-P in 2% sucrose; (3) TG-mice with oral administration of 2% sucrose; and (4) TG-mice with 1 mg/kg D-P in 2% sucrose. […] Next, we evaluated NCR (FIG. 3C). The RI was calculated.

The subject of experiment [2] is TG-mice. Kind of experiment: Elevated plus maze (EPM), anxiety in TG-mice. As to conditions: 2 mg/kg, 3 months. From the text:
2) Whole-Cell Patch-Clamp Recordings from Brain Slices. Transverse slices (400 lm) of dorsal hippocampus were obtained from wt and TG-SwDI mice (male, 20 months old) using a vibratome (VT 100; Technical Products International). Slices were perfused continuously with artificial CSF (ACSF) composed of the following (in mM): 125 NaCl, 2.5 KCl, 2 CaCl2, 2 MgCl2, 26 NaHCO3, and 10 D-glucose. The ACSF was bubbled continuously with 95% O2/5% CO2 to ensure adequate oxygenation of slices and a pH of 7.4 and kept at 34±0.5° C. for perfusion. TTX (0.5 μM), APV (40 μM), CNQX (10 μM), and CGP54626 (1 μM, GABABR antagonist) were added to ACSF to pharmacologically isolate GABAAR-mediated mIPSCs. […] Animals were placed on the central area of the maze, tested for 5 min and video recorded. The following measures were scored: number of entries into open arms, closed arms, or center platform and time spent in each of these areas. […]
6) The elevated plus maze assay (EPM) was performed in a quiet and dark room with only a low power red light. […] were placed on the central area of the maze, and their behavior video recorded for 5 min. The number of entries into open arms, closed arms, or center platform and time spent in each of these areas were scored during off-line analysis. […]
Locomotor activity was assayed with open field test. Running distance is one of the parameters quantifying locomotor activity (FIG. 4A). […]

Experiment [3] has as its system TG-mice. Nature of the experiment: Open field test of locomotor activity. The following applies: 3 months. As for the experimental part:
5) Locomotor assay: To measure the locomotor activity, the numbers of total entries were measured for each animal. Statistical differences were determined using ANOVA. These experiments will determine the effects of D-P on anxiety levels.
DHM-Piperidine Complex (D-P) can replicate DHM effects to improve behavioral impairment in TG-mice. We examined the effect of D-P on AD symptom-like behavior in aged TG2576 mice compared with age-matched wt mice. Mice were divided into three groups: (1) C57BL/6 wt male mice (2% sucrose, oral administration), (2) TG-mice (2% sucrose, oral administration), and (3) TG-mice with D-P (2 mg/kg in 2% sucrose), respectively. After 3 months of treatment, mice were examined with behavioral assays.
Locomotor activity was assayed with open field test. Running distance is one of the parameters quantifying locomotor activity (FIG. 4A). Wt control mice ran 882±55 cm during 10 min. TG-mice ran a much shorter distance (255±12 cm), while the running distance of TG-mice treated with D-P increased to 611±99 cm. […] D-P treatment in TG-mice increased rearing (19.3±2.0 times), times to explore the center (1.3±2.0 times), and duration to stay at the center (0.13±0.03 min). […] Daily oral D-P treatment for TG-mice improves locomotor activity and increased exploring activity, an instinct of animals. Anxiety was assayed with the EPM (FIG. 4D). The wt control spent 48.5±7.5% of total time in open arms and 33.5±3.2% in closed arms.

Turning to “piperidin-1-ium (2R,3R)-2-(3,4-dihydroxy-5-oxidophenyl)-3,5-dihydroxy-4-oxochroman-7-olate [D-P]”, the “Object Recognition Index (ORI)” value in the experiment with TG-mice [1] is recorded as 70.1±6.8%. Moreover, the “time in open and closed arms (EPM)” value with TG-mice [2] is recorded as “spent a similar amount of time in each arm”. In the experiment on TG-mice [3] (2 mg/kg in 2% sucrose, 10 min, untreated TG 255±12), this substance yielded a running distance of 611±99 cm. Moreover, the “duration to stay at the center” value with TG-mice [3] (2 mg/kg, untreated TG 0.02±0.01) is 0.13 ± 0.03 min. For the same substance, the “times to explore the center” value with TG-mice [3] (2 mg/kg, untreated TG 0.2±0.1) is recorded as 1.3±2.0 times. Also, the rearing with TG-mice [3] (2 mg/kg, untreated TG 12.5±2.1) worked out at 19.3±2.0 times.
